Assay [1] addresses recombinant human S1P1 receptor (Homo sapiens, UniProt P21453). The assay is described as follows: GTPγS assay to determine EC50 values. In kind it is biochemical. The settings on record: agonist concentration inducing 50% of maximal specific 35S-GTPγS binding; membranes of CHO cells expressing recombinant human S1P1. How it is done: GTPγS Assay to Determine EC50 Values
GTPγS binding assays are performed in 96 well microtiter plates (Nunc, 442587) in a final volume of 200 μl, using membrane preparations of CHO cells expressing recombinant human S1P1 receptor. Assay conditions are 20 mM Hepes (Fluka, 54461), 100 mM NaCl (Fluka, 71378), 5 mM MgCl2 (Fluka, 63064), 0.1% BSA (Calbiochem, 126609), 1 μM GDP (Sigma, G-7127), 2.5% DMSO (Fluka, 41644), 50 pM ^35S-GTPγS (Amersham Biosciences, SJ1320). The pH is 7.4. Test compounds are dissolved and diluted in 100% DMSO and pre-incubated at room temperature for 30 min in 150 μl of the above assay buffer, in the absence of ^35S-GTPγS. After addition of 50 μl of ^35S-GTPγS, the assay is incubated for 1 h at rt. The assay is terminated by transfer of the reaction mixture to a Multiscreen plate (Millipore, MAHFC1H60) using a cell harvester from Packard Biosciences, and the plates are washed with ice-cold 10 mM Na2HPO4/NaH2PO4 (70%/30%), dried, sealed at the bottom and, after addition of 25 μl MicroScint20 (Packard Biosciences, order #6013621), sealed on the top. Membrane-bound ^35S-GTPγS is measured with a TopCount from Packard Biosciences.
Specific binding is determined by subtracting non-specific binding from maximal binding. Maximal binding is the amount of cpm bound to the Multiscreen plate in the presence of 10 μM of S1P. Non-specific binding is the amount of binding in the absence of an agonist in the assay.
On the technique in general: GTPγS is a poorly hydrolysed GTP analogue; its binding reports G protein activation.

For the next assay, the system named is circulating lymphocytes. Description: Assessment of in vivo efficacy: circulating lymphocytes after oral administration. On the set-up: species or system normotensive male Wistar rats. As to conditions: 3 h after oral administration of 10 mg/kg, compared to animals treated with vehicle only; mean ± SEM.

Consider 38 compounds from patent publication US8148410B2, “Thiophene derivatives as agonists of S1P1/EDG1” (Actelion Pharmaceuticals Ltd., priority 2007, dated 2012).

The EC50 is the concentration that produces a half-maximal response.

Sequence of recombinant human S1P1 receptor (P21453 whole entry): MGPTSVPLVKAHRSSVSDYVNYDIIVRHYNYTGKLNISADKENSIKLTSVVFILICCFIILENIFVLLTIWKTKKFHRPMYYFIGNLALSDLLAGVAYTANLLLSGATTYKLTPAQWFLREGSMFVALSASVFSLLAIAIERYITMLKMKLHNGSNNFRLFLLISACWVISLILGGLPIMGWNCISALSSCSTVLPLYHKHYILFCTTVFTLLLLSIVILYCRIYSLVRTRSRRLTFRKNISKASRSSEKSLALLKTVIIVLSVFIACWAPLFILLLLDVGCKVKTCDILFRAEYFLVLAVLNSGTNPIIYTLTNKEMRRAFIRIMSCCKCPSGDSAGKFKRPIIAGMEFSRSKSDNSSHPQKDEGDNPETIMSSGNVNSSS
Description for circulating lymphocytes: Assessment of In Vivo Efficacy
The efficacy of the compounds of Formula (I) is assessed by measuring the circulating lymphocytes after oral administration of 3 to 30 mg/kg of a compound of Formula (I) to normotensive male Wistar rats. The animals are housed in climate-controlled conditions with a 12 h-light/dark cycle, and have free access to normal rat chow and drinking water. Blood is collected before and 3, 6 and 24 h after drug administration. Full blood is subjected to hematology using Advia Hematology system (Bayer Diagnostics, Zürich, Switzerland).
All data are presented as mean±SEM. Statistical analyses are performed by analysis of variance (ANOVA) using Statistica (StatSoft) and the Student-Newman-Keuls procedure for multiple comparisons. The null hypothesis is rejected when p<0.05.

Turning to `CNCc1sc(-c2nc(-c3cc(C)c(OCC(O)CNC(=O)CO)c(C)c3)no2)cc1C` (racemic) [Example 21], the EC50 in assay [1] was 3.8 nM.
Same read-out and setting: the figure for `Cc1cc(-c2nc(-c3cc(C)c(OCC(O)CNC(=O)CO)c(C)c3)no2)sc1CNC(C)C` (racemic) [Example 24] is 11 nM.
As to `CCCN(C)Cc1sc(-c2nc(-c3cc(C)c(OCC(O)CNC(=O)CO)c(C)c3)no2)cc1C` (racemic) [Example 28], the concentration for a half-maximal effect (EC50) in assay [1] worked out at 0.2 nM. For the same compound, in the assay on circulating lymphocytes, the Lymphocyte counts is listed as −68 ± 3%.
As to `Cc1cc(-c2nc(-c3cc(C)c(OCC(O)CNC(=O)CO)c(C)c3)no2)sc1CN(C)CCO` (racemic) [Example 30], the EC50 in assay [1] came to 10.2 nM.
Turning to `CCN(CCO)Cc1sc(-c2nc(-c3cc(C)c(OCC(O)CNC(=O)CO)c(C)c3)no2)cc1C` (racemic) [Example 31], the 50% effective concentration (EC50) in assay [1] came out at 8.1 nM.
As for `Cc1cc(-c2nc(-c3cc(C)c(OCC(O)CNC(=O)CO)c(C)c3)no2)sc1CN1CCCC1` (racemic) [Example 32], the EC50 in assay [1] came out at 11.2 nM.
On to `Cc1cc(-c2nc(-c3cc(C)c(OCC(O)CNC(=O)CO)c(C)c3)no2)sc1CN1CCCCC1` (racemic) [Example 33], for which, in assay [1], the EC50 is 9.8 nM.
On the same count and under the same terms, to `CCN(CC)Cc1sc(-c2nc(-c3cc(C)c(CCC(=O)O)c(C)c3)no2)cc1C` [Example 44] belongs 12.1 nM.
The same measure, in the same setting: to `CCc1cc(-c2noc(-c3cc(C)c(CN(C)CC)s3)n2)cc(C)c1OC[C@@H](O)CNC(=O)CO` [Example 52] belongs 2.2 nM; to `CCCCN(C)Cc1sc(-c2nc(-c3cc(C)c(OC[C@@H](O)CNC(=O)CO)c(CC)c3)no2)cc1C` [Example 54], 2 nM.
For `CCc1cc(-c2noc(-c3cc(C)c(CN(CC)CC)s3)n2)cc(C)c1OC[C@@H](O)CNC(=O)CO` [Example 56], the 50% effective concentration (EC50) in assay [1] amounted to 2.5 nM. In addition, the Lymphocyte counts in the assay on circulating lymphocytes was −68 ± 1%.
As to `CCCN(CC)Cc1sc(-c2nc(-c3cc(C)c(OC[C@@H](O)CNC(=O)CO)c(CC)c3)no2)cc1C` [Example 57], in assay [1], the EC50 stood at 2.8 nM.
Still for that read-out and setting: the figure for `CCc1cc(-c2noc(-c3cc(C)c(CN(CC)C(C)C)s3)n2)cc(C)c1OC[C@@H](O)CNC(=O)CO` [Example 58] is 3.3 nM; for `CCCCN(CC)Cc1sc(-c2nc(-c3cc(C)c(OC[C@@H](O)CNC(=O)CO)c(CC)c3)no2)cc1C` [Example 59] it is 7 nM.
In the case of `CCc1cc(-c2nc(-c3cc(C)c(OC[C@H](O)CO)c(CC)c3)no2)sc1CN(C)C` [Example 81], the EC50 in assay [1] is 2.6 nM.
Still for that read-out and setting: to `CCCN(C)Cc1sc(-c2nc(-c3cc(C)c(OC[C@@H](O)CNC(=O)CO)c(CC)c3)no2)cc1CC` [Example 84] belongs 0.8 nM.
The same measure, in the same setting: the figure for `CCCN(C)Cc1sc(-c2nc(-c3cc(C)c(CCC(=O)O)c(CC)c3)no2)cc1CC` [Example 86] is 9.1 nM; for `Cc1cc(-c2nc(-c3cc(C)c(OC[C@@H](O)CNC(=O)CO)c(C)c3)no2)sc1CN(C)C` [Example 87, N-((2S)-3-{4-[5-(5-Dimethylaminomethyl-4-methyl-thiophen-2-yl)-[1,2,4]oxadiazol-3-yl]-2,6-dimethyl-phenoxy}-2-hydroxy-propyl)-2-hydroxy-acetamide] it is 0.6 nM.
Still for that read-out and setting: the figure for `CCN(Cc1sc(-c2nc(-c3cc(C)c(OC[C@@H](O)CNC(=O)CO)c(C)c3)no2)cc1C)C(C)C` [Example 92, N-{(2S)-3-[4-(5-{5-[(Ethyl-isopropyl-amino)-methyl]-4-methyl-thiophen-2-yl}-[1,2,4]oxadiazol-3-yl)-2,6-dimethyl-phenoxy]-2-hydroxy-propyl}-2-hydroxy-acetamide] is 0.5 nM; for `CCCN(C)Cc1sc(-c2nc(-c3cc(C)c(CCC(=O)NCC(=O)OC)c(CC)c3)no2)cc1C` [Example 98] it is 17.3 nM.
Turning to `CCc1cc(-c2noc(-c3cc(C)c(CN(CC)CC)s3)n2)cc(C)c1CCC(=O)NCC(=O)O` [Example 106], the EC50 in assay [1] worked out at 8.6 nM.
Still for that read-out and setting: the figure for `CCCN(C)Cc1sc(-c2nc(-c3cc(C)c(CCC(=O)NCCC(=O)O)c(CC)c3)no2)cc1C` [Example 115] is 10.5 nM.
Take `CCCN(CC)Cc1sc(-c2nc(-c3cc(C)c(CCC(=O)NCCC(=O)O)c(CC)c3)no2)cc1C` [Example 119]: the EC50 in assay [1] stood at 2.1 nM.
Turning to `CCc1cc(-c2noc(-c3cc(C)c(CN(CC)CC)s3)n2)cc(C)c1CCC(=O)NCCO` [Example 136], the EC50 in assay [1] came out at 18.5 nM.
As to `CCc1cc(-c2nc(-c3cc(C)c(CN(CC)CC)s3)no2)cc(C)c1OC[C@@H](O)CNC(=O)CO` [Example 149], the EC50 in assay [1] turned out to be 1.6 nM.
On the same count and under the same terms, to `CCc1cc(-c2nnc(-c3cc(C)c(CN(C)C)s3)o2)cc(C)c1OC[C@@H](O)CNC(=O)CO` [Example 150, N-((2S)-3-{4-[5-(5-Dimethylaminomethyl-4-methyl-thiophen-2-yl)-[1,3,4]oxadiazol-2-yl]-2-ethyl-6-methyl-phenoxy}-2-hydroxy-propyl)-2-hydroxy-acetamide] belongs 5.4 nM; to `CCN(CC)Cc1sc(-c2nc(-c3cc(C)c(N)c(Cl)c3)no2)cc1C` [Example 187, 2-Chloro-4-[5-(5-diethylaminomethyl-4-methyl-thiophen-2-yl)-[1,2,4]oxadiazol-3-yl]-6-methyl-phenylamine], 22 nM; to `CCN(CC)Cc1sc(-c2nc(-c3cc(C)c(OC[C@@H](O)CNC(=O)CO)c(OC)c3)no2)cc1C` [Example 194, N-((2S)-3-{4-[5-(5-Diethylaminomethyl-4-methyl-thiophen-2-yl)-[1,2,4]oxadiazol-3-yl]-2-methoxy-6-methyl-phenoxy}-2-hydroxy-propyl)-2-hydroxy-acetamide], 2.5 nM.
Turning to `CCN(CC)Cc1sc(-c2nc(-c3cc(C)c(OC[C@@H](O)CNC(=O)CO)c(Cl)c3)no2)cc1C` [Example 195, N-((2S)-3-{4-[5-(5-Diethylaminomethyl-4-methyl-thiophen-2-yl)-[1,2,4]oxadiazol-3-yl]-2-chloro-6-methyl-phenoxy}-2-hydroxy-propyl)-2-hydroxy-acetamide], in assay [1], the half-maximal effective concentration (EC50) was determined as 0.2 nM.
Same read-out and setting: the figure for `CCN(CC)Cc1sc(-c2nc(-c3ccc(OCC(O)CNC(=O)CO)cc3C)no2)cc1C` (stereo not shown) [Example 196, N-(3-{4-[5-(5-Diethylaminomethyl-4-methyl-thiophen-2-yl)-[1,2,4]oxadiazol-3-yl]-3-methyl-phenoxy}-2-hydroxy-propyl)-2-hydroxy-acetamide] is 13 nM; for `CCN(CC)Cc1sc(-c2nc(-c3cc(C)c(OC[C@@H](O)CO)c(Cl)c3)no2)cc1C` [Example 198, (2S)-3-{2-Chloro-4-[5-(5-diethylaminomethyl-4-methyl-thiophen-2-yl)-[1,2,4]oxadiazol-3-yl]-6-methyl-phenoxy}-propane-1,2-diol] it is 2.1 nM; for `CCc1cc(-c2noc(-c3cc(C)c(CN(CC)CC)s3)n2)cc(C)c1OC[C@@H](O)CN1CCC(C(=O)O)C1` (stereo partly drawn) [Example 205, 1-((2S)-3-{4-[5-(5-Diethylaminomethyl-4-methyl-thiophen-2-yl)-[1,2,4]oxadiazol-3-yl]-2-ethyl-6-methyl-phenoxy}-2-hydroxy-propyl)-pyrrolidine-3-carboxylic acid] it is 18.4 nM.
In the case of `CCc1cc(-c2noc(-c3cc(C)c(CN(CC)CC)s3)n2)cc(C)c1OC[C@@H](O)CNCCO` [Example 210], the EC50 in assay [1] was 9.6 nM.
Same read-out and setting: to `CCc1cc(-c2noc(-c3cc(C)c(CN(CC)CC)s3)n2)cc(C)c1OC[C@@H](O)CNC(CO)CO` [Example 214] belongs 1.7 nM; to `CCc1cc(-c2noc(-c3cc(C)c(CN(CC)CC)s3)n2)cc(C)c1OC[C@@H](O)CNCC(=O)O` [Example 220], 3.4 nM; to `CCc1cc(-c2noc(-c3cc(C)c(CN(CC)CC)s3)n2)cc(C)c1OC[C@@H](O)CNC(=O)CCO` [Example 223], 6.2 nM.
`CCc1cc(-c2noc(-c3cc(C)c(CN(CC)CC)s3)n2)cc(C)c1OC[C@@H](O)CNC(=O)CN` [Example 225]: in assay [1], the half-maximal effective concentration (EC50) is 1.1 nM.
Still for that read-out and setting: the figure for `CCc1cc(-c2noc(-c3cc(C)c(CN(CC)CC)s3)n2)cc(C)c1OC[C@@H](O)CNC(=O)CNC` [Example 226] is 3.5 nM.
